Article PMC4042160, “In silico, in vitro and cellular analysis with a kinome-wide inhibitor panel correlates cellular LRRK2 dephosphorylation to inhibitor activity on LRRK2” (Frontiers in Molecular Neuroscience, 2014)
Several values for one entry are separate records, joined by “and”; a condition that tells them apart may be missing. Identical values can stand only once.

Tests used:
LRRK2 phospho-Ser935 = target: T1, LRRK2 phospho-Ser935 (Homo sapiens, UniProt Q5S007); experiment: Cellular LRRK2 phosphoserine 935 dephosphorylation spotblot assay in SH-SY5Y cells stably expressing 3xFlag-LRRK2; type: cell-based; settings: for dephosphorylation of LRRK2 (Ser935): 5 μM, 2 h, SH-SY5Y; for Phosphorylation level relative to solvent (%) (cellular pS935 assay): @ 5 μM for 2 h, SH-SY5Y stably expressing LRRK2, pS935/total LRRK2
T1 construct: expressed in transfected cells
T1 sequence (Q5S007 whole entry): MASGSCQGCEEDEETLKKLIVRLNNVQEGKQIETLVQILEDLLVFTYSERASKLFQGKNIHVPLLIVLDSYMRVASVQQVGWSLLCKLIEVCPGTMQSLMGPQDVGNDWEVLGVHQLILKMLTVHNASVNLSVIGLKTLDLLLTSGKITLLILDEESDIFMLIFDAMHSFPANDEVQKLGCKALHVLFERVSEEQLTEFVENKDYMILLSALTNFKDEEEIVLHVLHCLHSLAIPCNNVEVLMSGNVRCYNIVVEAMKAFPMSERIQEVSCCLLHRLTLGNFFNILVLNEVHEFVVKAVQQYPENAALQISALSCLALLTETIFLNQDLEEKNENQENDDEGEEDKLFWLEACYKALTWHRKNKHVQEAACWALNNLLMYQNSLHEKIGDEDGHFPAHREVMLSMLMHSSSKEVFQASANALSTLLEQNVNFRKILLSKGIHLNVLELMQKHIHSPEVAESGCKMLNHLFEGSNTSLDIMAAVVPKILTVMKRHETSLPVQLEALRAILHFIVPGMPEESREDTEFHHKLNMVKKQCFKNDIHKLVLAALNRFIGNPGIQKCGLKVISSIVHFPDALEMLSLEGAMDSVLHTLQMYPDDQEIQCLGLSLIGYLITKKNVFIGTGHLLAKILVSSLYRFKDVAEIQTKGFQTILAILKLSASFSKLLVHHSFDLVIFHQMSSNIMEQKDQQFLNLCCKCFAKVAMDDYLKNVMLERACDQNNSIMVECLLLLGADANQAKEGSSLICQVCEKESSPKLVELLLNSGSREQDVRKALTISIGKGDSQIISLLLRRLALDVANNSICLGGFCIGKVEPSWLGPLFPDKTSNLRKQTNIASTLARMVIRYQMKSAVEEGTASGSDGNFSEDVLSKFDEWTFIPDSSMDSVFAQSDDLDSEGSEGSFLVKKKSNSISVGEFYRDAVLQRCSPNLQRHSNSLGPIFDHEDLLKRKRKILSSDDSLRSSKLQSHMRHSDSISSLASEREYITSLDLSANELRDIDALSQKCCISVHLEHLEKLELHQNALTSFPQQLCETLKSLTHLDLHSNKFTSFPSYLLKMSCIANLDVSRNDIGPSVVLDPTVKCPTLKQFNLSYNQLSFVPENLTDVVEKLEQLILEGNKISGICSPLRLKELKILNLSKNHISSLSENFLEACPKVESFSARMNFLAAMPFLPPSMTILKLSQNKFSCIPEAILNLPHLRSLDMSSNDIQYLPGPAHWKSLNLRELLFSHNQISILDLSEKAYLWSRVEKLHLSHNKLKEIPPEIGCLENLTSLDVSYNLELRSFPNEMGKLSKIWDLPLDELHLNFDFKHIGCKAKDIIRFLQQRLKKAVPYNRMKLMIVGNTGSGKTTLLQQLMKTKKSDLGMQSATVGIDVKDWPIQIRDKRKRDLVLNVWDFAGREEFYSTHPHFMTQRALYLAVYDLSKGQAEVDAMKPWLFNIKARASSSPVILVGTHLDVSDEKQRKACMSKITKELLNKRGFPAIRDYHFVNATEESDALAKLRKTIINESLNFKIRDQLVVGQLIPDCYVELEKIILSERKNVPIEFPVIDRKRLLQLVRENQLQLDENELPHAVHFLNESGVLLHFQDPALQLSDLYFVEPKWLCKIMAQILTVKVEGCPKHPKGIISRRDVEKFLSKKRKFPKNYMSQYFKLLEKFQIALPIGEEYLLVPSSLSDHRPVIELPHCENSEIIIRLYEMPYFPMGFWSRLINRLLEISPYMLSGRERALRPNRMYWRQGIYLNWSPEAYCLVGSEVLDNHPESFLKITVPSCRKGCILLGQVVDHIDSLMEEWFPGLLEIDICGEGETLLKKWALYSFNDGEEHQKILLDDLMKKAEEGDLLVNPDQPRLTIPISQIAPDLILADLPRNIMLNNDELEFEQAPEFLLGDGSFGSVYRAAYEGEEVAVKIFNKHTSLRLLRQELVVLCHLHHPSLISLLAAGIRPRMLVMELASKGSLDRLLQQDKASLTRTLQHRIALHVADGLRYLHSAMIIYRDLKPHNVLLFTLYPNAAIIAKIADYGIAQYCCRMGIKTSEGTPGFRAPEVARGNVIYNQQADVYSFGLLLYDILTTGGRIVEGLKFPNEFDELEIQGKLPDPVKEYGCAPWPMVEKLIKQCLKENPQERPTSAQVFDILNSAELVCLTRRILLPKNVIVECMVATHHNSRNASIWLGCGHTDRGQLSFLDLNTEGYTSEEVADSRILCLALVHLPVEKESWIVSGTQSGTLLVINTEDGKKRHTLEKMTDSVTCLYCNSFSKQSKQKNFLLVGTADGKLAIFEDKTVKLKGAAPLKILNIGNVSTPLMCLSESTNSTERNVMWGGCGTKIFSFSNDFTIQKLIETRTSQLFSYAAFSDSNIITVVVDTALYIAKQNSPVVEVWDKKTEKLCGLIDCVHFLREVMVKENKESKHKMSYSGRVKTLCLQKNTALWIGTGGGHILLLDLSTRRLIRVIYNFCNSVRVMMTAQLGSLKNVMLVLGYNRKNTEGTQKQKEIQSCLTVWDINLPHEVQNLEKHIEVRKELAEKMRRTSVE

[1] = target: T2, GST-tagged truncated LRRK2 containing residues 970 to 2527 (Homo sapiens, UniProt Q5S007); experiment: In vitro LRRKtide peptide-substrate kinase assay, single dose testing (10 μM); type: biochemical; settings: for % LRRKtide phosphorylation relative to solvent: LRRKtide assay @ 10 μM inhibitor, GST-LRRK2 970-2527, 10 μM ATP, mean, N = 3, solvent control = 100%; for activity on LRRK2 kinase activity in vitro (in words): no activity at 10 μM
T2 construct: GST-tagged truncated LRRK2 containing residues 970 to 2527 (Life Technologies); purchased Life Technologies
T2 sequence (Q5S007 970-2527): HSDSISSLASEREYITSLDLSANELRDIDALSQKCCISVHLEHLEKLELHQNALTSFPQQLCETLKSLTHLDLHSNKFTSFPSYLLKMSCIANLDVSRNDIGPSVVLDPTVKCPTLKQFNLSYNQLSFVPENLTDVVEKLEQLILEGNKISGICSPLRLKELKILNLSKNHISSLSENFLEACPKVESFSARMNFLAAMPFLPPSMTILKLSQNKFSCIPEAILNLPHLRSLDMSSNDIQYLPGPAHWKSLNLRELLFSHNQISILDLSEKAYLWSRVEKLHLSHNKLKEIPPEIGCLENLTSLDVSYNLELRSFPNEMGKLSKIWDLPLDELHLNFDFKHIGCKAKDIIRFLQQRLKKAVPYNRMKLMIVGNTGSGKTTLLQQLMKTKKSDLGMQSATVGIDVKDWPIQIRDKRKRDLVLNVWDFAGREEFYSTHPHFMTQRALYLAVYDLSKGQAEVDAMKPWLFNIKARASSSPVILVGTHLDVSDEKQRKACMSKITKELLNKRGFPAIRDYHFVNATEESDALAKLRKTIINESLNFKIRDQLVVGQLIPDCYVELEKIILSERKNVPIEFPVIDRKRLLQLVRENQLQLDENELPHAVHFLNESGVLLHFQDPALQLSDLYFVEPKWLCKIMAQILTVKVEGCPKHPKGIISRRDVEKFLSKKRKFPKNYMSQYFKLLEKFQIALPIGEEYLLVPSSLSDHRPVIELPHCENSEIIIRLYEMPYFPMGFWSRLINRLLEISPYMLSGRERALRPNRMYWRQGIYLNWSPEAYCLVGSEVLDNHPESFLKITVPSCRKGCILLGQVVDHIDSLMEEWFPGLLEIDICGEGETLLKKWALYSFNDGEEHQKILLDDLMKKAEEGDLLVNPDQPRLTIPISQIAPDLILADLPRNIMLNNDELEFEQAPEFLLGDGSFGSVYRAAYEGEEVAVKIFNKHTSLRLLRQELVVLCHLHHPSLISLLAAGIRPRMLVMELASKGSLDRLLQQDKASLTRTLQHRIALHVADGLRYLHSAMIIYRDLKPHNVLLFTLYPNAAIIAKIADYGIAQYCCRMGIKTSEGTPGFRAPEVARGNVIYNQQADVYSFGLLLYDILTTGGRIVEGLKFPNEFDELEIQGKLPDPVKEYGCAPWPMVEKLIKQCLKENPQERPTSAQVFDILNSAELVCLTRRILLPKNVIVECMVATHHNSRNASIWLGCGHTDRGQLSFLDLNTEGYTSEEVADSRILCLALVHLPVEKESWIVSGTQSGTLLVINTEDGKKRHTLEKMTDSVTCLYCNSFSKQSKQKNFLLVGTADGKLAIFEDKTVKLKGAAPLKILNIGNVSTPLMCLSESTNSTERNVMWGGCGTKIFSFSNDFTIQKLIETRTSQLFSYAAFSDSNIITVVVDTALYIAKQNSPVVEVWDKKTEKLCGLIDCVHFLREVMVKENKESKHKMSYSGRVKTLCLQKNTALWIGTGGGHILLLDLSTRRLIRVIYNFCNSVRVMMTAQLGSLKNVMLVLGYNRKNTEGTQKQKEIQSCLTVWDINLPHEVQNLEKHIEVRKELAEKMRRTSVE

| SMILES | dephosphorylation of LRRK2 (Ser935) (LRRK2 phospho-Ser935) | Phosphorylation level relative to solvent (%) (cellular pS935 assay) (LRRK2 phospho-Ser935) | % LRRKtide phosphorylation relative to solvent [1] | activity on LRRK2 kinase activity in vitro (in words) [1] | Cellular pS935 (% @ 5 μM) (LRRK2 phospho-Ser935; pS935 level as % of control, 5 μM for 2 h, SH-SY5Y cells with stable expression of LRRK2) |
| --- | --- | --- | --- | --- | --- |
| N#C/C(=C/c1ccc(O)c(O)c1)C(=O)NCc1ccccc1 [AG490] | 49.32% | 50.68% | 34.24% | – | – |
| N#CC(C#N)=C(N)/C(C#N)=C/c1ccc(O)cc1 [AG 112] | – | 60.39% | 77.45% | – | – |
| CC(C)(C)c1cc(C=C(C#N)C#N)cc(Br)c1O [AG 1024] | – | 94.37% | 51.38% | – | – |
| Cc1cc2ncc(-c3ccccc3)nc2cc1C [AG 1295] | – | 49.08% | 89.08% | – | – |
| COc1cc2ncc(-c3ccccc3)nc2cc1OC [AG 1296] | – | 50.93% | 22.76% | – | – |
| Cc1nc2cc3nc(-c4cccs4)cnc3cc2n1C [AGL 2043] | – | 90.06% | 29.68% | – | – |
| c1cc(-c2cnn3cc(-c4ccc(OCCN5CCCCC5)cc4)cnc23)ccn1 [AMPK inhibitor, compound C] | – | 112.70% | 24.40% | – | – |
| O=c1cc(-c2cccc3c2Sc2ccccc2S3)oc(N2CCOCC2)c1 [ATM kinase inhibitor] | – | 103.28% | 86.09% | – | – |
| O=C(NC(NC(=S)Nc1ccc(F)c([N+](=O)[O-])c1)C(Cl)(Cl)Cl)C(c1ccccc1)c1ccccc1 (stereo not shown) [ATM/ATR kinase inhibitor] | – | 88.64% | 131.38% | – | – |
| CC[n+]1c(/C=C/N(C)c2ccccc2)n(-c2ccccc2)c2ccc(-c3nc4ccccc4s3)cc21.[I-] [Akt inhibitor IV] | – | 76.44% | 18.59% | – | – |
| CCN(CC)CCCCN1c2ccccc2Oc2ccc(Cl)cc21 [Akt inhibitor X] | – | 69.13% | 61.91% | – | – |
| O=c1[nH]c2ccccc2n1C1CCN(Cc2ccc(-c3nc4cc5nc[nH]c5cc4nc3-c3ccccc3)cc2)CC1 [Akti-1/2] | – | 77.80% | 99.69% | – | – |
| CCCCc1c(-c2ccc(O)cc2)[nH]c2nccnc12 [Aloisine A, RP107, Aloisine A] | – | 102.87% | 23.85% | – | – |
| CCCCc1c(-c2ccc(OC)cc2)[nH]c2nccnc12 [Aloisine, RP106] | – | 109.11% | 17.45% | – | – |
| N#CCCc1ccc2c(c1)-c1[nH]c3ccc([N+](=O)[O-])cc3c1CC(=O)N2 [Alsterpaullone, 2-Cyanoethyl] | – | 96.84% | 10.82% | – | – |
| O=C1Cc2c([nH]c3ccc([N+](=O)[O-])cc23)-c2ccccc2N1 [Alsterpaullone] | – | 108.54% | 31.34% | – | – |
| O=C(Nc1cccc(Nc2nccc(Nc3cccc(C(F)(F)F)c3)n2)c1)C1CC1 [Aurora kinase inhibitor III] | ~ 50% | – | 83.96% and 44.16% | inactive | – |
| Nc1nc(Nc2ccc(S(N)(=O)=O)cc2)nn1C(=O)c1c(F)cccc1F [Aurora kinase/Cdk inhibitor] | – | 45.67% | 1.21% | – | – |
| Cc1ccc(S(=O)(=O)/C=C/C#N)cc1 [BAY 11-7082] | ~ 50% | 47.14% | 132.94% | inactive | – |
| NC(=O)c1cccc(-c2cc(Nc3ccc(OC(F)(F)F)cc3)ncn2)c1 [Bcr-abl inhibitor] | – | 78.83% | 82.04% | – | – |

| SMILES | dephosphorylation of LRRK2 (Ser935) (LRRK2 phospho-Ser935) | Phosphorylation level relative to solvent (%) (cellular pS935 assay) (LRRK2 phospho-Ser935) | % LRRKtide phosphorylation relative to solvent [1] | activity on LRRK2 kinase activity in vitro (in words) [1] | Cellular pS935 (% @ 5 μM) (LRRK2 phospho-Ser935; pS935 level as % of control, 5 μM for 2 h, SH-SY5Y cells with stable expression of LRRK2) |
| --- | --- | --- | --- | --- | --- |
| O=C1NC(=O)C(c2c[nH]c3ccccc23)=C1c1c[nH]c2ccccc12 [Bisindolylmaleimide IV] | – | 84.51% | 3.07% | – | – |
| CN(C)CCCn1cc(C2=C(c3c[nH]c4ccccc34)C(=O)NC2=O)c2ccccc21 [Bisindolylmaleimide I] | – | 73.14% | 4.46% | – | – |
| NC(=O)c1ccc(-c2nc(-c3ccc4c(c3)OCCO4)c(-c3ccccn3)[nH]2)cc1 [Casein kinase I inhibitor, D4476, D4476] | – | 97.88% | 60.00% | – | – |
| O=C(O)/C=C/c1cc(Br)c(Br)c(Br)c1Br [Casein kinase II inhibitor III, TBCA, TBCA] | – | 116.47% | 16.78% | – | – |
| CCN1/C(=C/C(C)=O)Sc2ccc(OC)cc21 [Cdc2-like kinase inhibitor, TG003, TG003] | – | 81.30% | 37.41% | – | – |
| CCn1cnc2c(Nc3cccc(Cl)c3)nc(N[C@@H]3CCCC[C@@H]3N)nc21 [Cdk1 inhibitor, CGP74514A, CGP74514A] | – | 83.35% | 3.91% | – | – |
| Nc1[nH]nc2nc3ccccc3nc12 [Cdk1/5 inhibitor] | – | 123.99% | 25.04% | – | – |
| CCN(CC)C(=O)c1ccc(Nc2nc(OCC3CCCCC3)c3[nH]cnc3n2)cc1 [Cdk2 inhibitor IV, NU6140, NU6140] | – | 34.63% | 0.98% | – | – |
| COc1ccc(OC)c2c(=S)c3ccccc3[nH]c12 [Cdk4 inhibitor II, 625987, NSC 625987] | – | 70.36% | 76.06% | – | – |
| Cc1ccc(NC2=CC(=O)c3sc(C)nc3C2=O)cc1 [Cdk4 inhibitor III] | – | 48.63% | 26.80% | – | – |
| O=C1NC(=O)c2c1c1c3ccccc3[nH]c1c1[nH]c3cc(Br)ccc3c21 [Cdk4 inhibitor] | – | 49.88% | 6.82% | – | – |
| CC(C)c1nn(-c2c(Cl)cccc2Cl)c2nc(Cc3ccc(OCCO)cc3)[nH]c(=O)c12 [Cdk/Crk inhibitor] | – | 97.11% | 54.91% | – | – |
| COc1ccc2c(c[n+](C)c3c4cc5c(cc4ccc23)OCO5)c1OC [Chelerythrine chloride] | – | 67.25% | 77.91% | – | – |
| CC(=O)c1ccc(N2CCOCC2)cc1O [DNA-PK inhibitor III] | – | 71.78% | 68.41% | – | – |
| O=c1cc(N2CCOCC2)oc2c1ccc1ccccc12 [DNA-PK inhibitor II] | – | 81.93% | 86.06% | – | – |
| O=C(c1ccccc1)c1ccc(N2CCOCC2)cc1O [DNA-PK inhibitor V] | ~ 50% | 48.36% | 89.01% | inactive | – |
| O=c1c2ccccc2[nH]c(=S)n1CCN1CCC(=C(c2ccc(F)cc2)c2ccc(F)cc2)CC1 [Diacylglycerol kinase inhibitor II] | – | 84.54% | 119.82% | – | – |
| O=C(Nc1cccc(Nc2cc(Nc3cccc(C(F)(F)F)c3)ncn2)c1)C1CC1 [EGFR inhibitor] | – | 57.76% | 64.37% | – | – |
| CC#CC(=O)Nc1cc2c(Nc3ccc(F)c(Cl)c3)ncnc2cn1 [EGFR/ErbB-2/ErbB-4 inhibitor] | – | 69.18% | 81.86% | – | – |
| CN[C@@H]1C[C@H]2O[C@@](C)([C@@H]1OC)n1c3ccccc3c3c4c(c5c6ccccc6n2c5c31)C(=O)NC4 [Staurosporine, Streptomyces sp., Staurosporine] | – | – | – | – | 8.89% |
